Data from patent publication US20210196724A1, “BIARYL COMPOSITIONS AND METHODS FOR MODULATING A KINASE CASCADE” (Athenex, Inc., priority 2016, published 2021).

What was measured:
Assay type in all cases: cell-based
[1] = test system: HUH-7 cells; experiment: CellTiter-Glo cell viability, HUH-7; details: 72 h
Protocol: (§1) The cell viability of 50 cancer cell lines was studied after treatment with Compound 121. Inhibition concentration values at 50% (IC50) were determined using CellTiter-Glo luminescent cell viability assay after incubation with different compound concentrations. GI50 values were determined according to the examples described above. Each cell line was treated with Compound 121, a standard chemotherapy drug as a reference control, and culture medium as a vehicle control.
(§2) All cells were cultured in media supplemented with 10-15% FBS at 37° C. in the presence of 5% CO2 and at 95% humidity. The culture medium was purchased from GIBCO or Sigma, USA. Cisplatin was chosen as the reference control and purchased from Hospira Australia Pty Ltd. The cell lines studied are presented in Table 5.
(§3) Cells were harvested during a logarithmic growth period and cell number count was determined using Count-star. Cell concentrations were adjusted to 4.44×10^4 cells/mL with respective culture medium. 90 μL of cell suspensions were added to two 96-well plates (plates A and B) with a final cell density of 4×10^3 cells/well.
(§4) 10 μL of culture medium was added to each well of plate A for TO reading. The plate was allowed to equilibrate at room temperature for approximately 30 min. 50 μL of CellTiter-Glo was added to each well and the contents were mixed for 5 min on an orbital shaker to induce cell lysis. The plate was allowed to incubate at room temperature for 20 min to stabilize luminescent signal.
(§5) 10 μM Compound 121 in media was serially diluted 3.16-fold to achieve 9 dose levels. Similarly, 100 μM reference control in media was serially diluted 3.16-fold to prepare reference control solutions. 10 μL drug solution and 10 μL of reference control was dispensed into each well in plate B.
(§6) Test plate B was incubated for 72 h in a humidified incubator at 37° C. in the presence of 5% CO2 and then subjected to CTG assay. The plate was allowed to equilibrate at room temperature for about 30 min. 50 μL of CellTiter-Glo was added to each well and the contents were mixed for 5 min on an orbital shaker to induce cell lysis. The plate was allowed to incubate at room temperature for 20 min to stabilize luminescent signal.
(§7) IC50 and GI50 values for each of the 50 cell lines are presented in Table 6 and were calculated based on the dose-response curves depicted in FIGS. 1-50. The dose-response curves were fitted using nonlinear regression model with a sigmoidal dose response. The formula for calculating survival rate was calculated by the formula:
(§8) Survival rate (%)=(LumTest article−LumMedium control)/(LumNone treated−LumMedium control)×100.

[2] = test system: PC-3 cells; experiment: CellTiter-Glo cell viability, PC-3; details: 72 h
Protocol: as §1, §2, §3, §4, §5, §6, §7, §8

[3] = test system: Raji cells; experiment: CellTiter-Glo cell viability, Raji; details: 72 h
Protocol: as §1, §2, §3, §4, §5, §6, §7, §8

[4] = test system: K-562 cells; experiment: CellTiter-Glo cell viability, K-562; details: 72 h
Protocol: as §1, §2, §3, §4, §5, §6, §7, §8

[5] = test system: SW579 cells; experiment: CellTiter-Glo cell viability, SW579; details: 72 h
Protocol: as §1, §2, §3, §4, §5, §6, §7, §8

[6] = test system: 786-O cells; experiment: CellTiter-Glo cell viability, 786-O; details: 72 h
Protocol: as §1, §2, §3, §4, §5, §6, §7, §8

[7] = test system: 22Rv1 cells; experiment: CellTiter-Glo cell viability, 22Rv1; details: 72 h
Protocol: as §1, §2, §3, §4, §5, §6, §7, §8

[8] = test system: MES-SA/DX5 cells; experiment: CellTiter-Glo cell viability, MES-SA/DX5; details: 72 h
Protocol: as §1, §2, §3, §4, §5, §6, §7, §8

[9] = test system: 143B cells; experiment: CellTiter-Glo cell viability, 143B; details: 72 h
Protocol: as §1, §2, §3, §4, §5, §6, §7, §8

[10] = test system: A-673 cells; experiment: CellTiter-Glo cell viability, A-673; details: 72 h
Protocol: as §1, §2, §3, §4, §5, §6, §7, §8

[11] = test system: MDA-MB-453 cells; experiment: CellTiter-Glo cell viability, MDA-MB-453; details: 72 h
Protocol: as §1, §2, §3, §4, §5, §6, §7, §8

[12] = test system: MDA-MB-231 cells; experiment: CellTiter-Glo cell viability, MDA-MB-231; details: 72 h
Protocol: as §1, §2, §3, §4, §5, §6, §7, §8

[13] = test system: SNU-5 cells; experiment: CellTiter-Glo cell viability, SNU-5; details: SN1J-5 cells, 72 h
Protocol: as §1, §2, §3, §4, §5, §6, §7, §8

[14] = test system: NCI-H226 cells; experiment: CellTiter-Glo cell viability, NCI-H226; details: 72 h
Protocol: as §1, §2, §3, §4, §5, §6, §7, §8

[15] = test system: HT-1376 cells; experiment: CellTiter-Glo cell viability, HT-1376; details: 72 h
Protocol: as §1, §2, §3, §4, §5, §6, §7, §8

[16] = test system: KYSE-150 cells; experiment: CellTiter-Glo cell viability, KYSE-150; details: 72 h
Protocol: as §1, §2, §3, §4, §5, §6, §7, §8

[17] = test system: FaDu cells; experiment: CellTiter-Glo cell viability, FaDu; details: 72 h
Protocol: as §1, §2, §3, §4, §5, §6, §7, §8

[18] = test system: HCT-15 cells; experiment: CellTiter-Glo cell viability, HCT-15; details: 72 h
Protocol: as §1, §2, §3, §4, §5, §6, §7, §8

[19] = test system: U251 cells; experiment: CellTiter-Glo cell viability, U251; details: 72 h
Protocol: as §1, §2, §3, §4, §5, §6, §7, §8

[20] = test system: HeLa cells; experiment: CellTiter-Glo cell viability, HeLa; details: 72 h
Protocol: as §1, §2, §3, §4, §5, §6, §7, §8

[21] = test system: HT-1080 cells; experiment: CellTiter-Glo cell viability, HT-1080; details: 72 h
Protocol: as §1, §2, §3, §4, §5, §6, §7, §8

[22] = top conc. 10 μM Compound 121, 100 μM cisplatin

## N.N.[Cl][Pt][Cl] [Cisplatin, reference compound]
[1]; read-out: Absolute GI50
  GI50: 2610 nM
[1]; read-out: Absolute IC50
  IC50: 3540 nM
[1]; [22]
  % inhibition at top conc.: 93.92%
[2]; read-out: Absolute GI50
  GI50: 4680 nM
[2]; read-out: Absolute IC50
  IC50: 5940 nM
[2]; [22]
  % inhibition at top conc.: 83.88%
[3]; read-out: Absolute GI50
  GI50: 1740 nM
[3]; read-out: Absolute IC50
  IC50: 1970 nM
[3]; [22]
  % inhibition at top conc.: 94.98%
[4]; read-out: Absolute GI50
  GI50: 4210 nM
[4]; read-out: Absolute IC50
  IC50: 4510 nM
[4]; [22]
  % inhibition at top conc.: 97.94%
[5]; read-out: Absolute GI50
  GI50: 1830 nM
[5]; read-out: Absolute IC50
  IC50: 2240 nM
[5]; [22]
  % inhibition at top conc.: 99.88%
[6]; read-out: Absolute GI50
  GI50: 1600 nM
[6]; read-out: Absolute IC50
  IC50: 1770 nM
[6]; [22]
  % inhibition at top conc.: 98.46%
[7]; read-out: Absolute GI50
  GI50: 1880 nM
[7]; read-out: Absolute IC50
  IC50: 3070 nM
[7]; [22]
  % inhibition at top conc.: 98.28%
[8]; read-out: Absolute GI50
  GI50: 1960 nM
[8]; read-out: Absolute IC50
  IC50: 2210 nM
[8]; [22]
  % inhibition at top conc.: 99.94%
[9]; read-out: Absolute GI50
  GI50: 1020 nM
[9]; read-out: Absolute IC50
  IC50: 1080 nM
[9]; [22]
  % inhibition at top conc.: 99.94%
[10]; read-out: Absolute GI50
  GI50: 400 nM
[10]; read-out: Absolute IC50
  IC50: 1120 nM
[10]; [22]
  % inhibition at top conc.: 99.59%
[11]; read-out: Absolute GI50
  GI50: 7050 nM
[11]; read-out: Absolute IC50
  IC50: 9510 nM
[11]; [22]
  % inhibition at top conc.: 96.82%
[12]; read-out: Absolute GI50
  GI50: 18600 nM
[12]; [22]
  % inhibition at top conc.: 85.68%
[13]; read-out: Absolute GI50
  GI50: 2150 nM
[13]; read-out: Absolute IC50
  IC50: 2500 nM
[13]; [22]
  % inhibition at top conc.: 97.80%
[14]; read-out: Absolute GI50
  GI50: 5720 nM
[14]; read-out: Absolute IC50
  IC50: 7360 nM
[14]; [22]
  % inhibition at top conc.: 94.81%
[15]; read-out: Absolute GI50
  GI50: 2640 nM
[15]; read-out: Absolute IC50
  IC50: 3260 nM
[15]; [22]
  % inhibition at top conc.: 91.76%
[16]; read-out: Absolute GI50
  GI50: 6260 nM
[16]; read-out: Absolute IC50
  IC50: 8140 nM
[16]; [22]
  % inhibition at top conc.: 91.28%
[17]; read-out: Absolute GI50
  GI50: 1960 nM
[17]; read-out: Absolute IC50
  IC50: 2250 nM
[17]; [22]
  % inhibition at top conc.: 98.16%
[18]; read-out: Absolute GI50
  GI50: 4270 nM
[18]; read-out: Absolute IC50
  IC50: 4760 nM
[18]; [22]
  % inhibition at top conc.: 98.22%
[19]; read-out: Absolute GI50
  GI50: 3070 nM
[19]; read-out: Absolute IC50
  IC50: 3980 nM
[19]; [22]
  % inhibition at top conc.: 87.70%
[20]; read-out: Absolute GI50
  GI50: 300 nM
[20]; [22]
  % inhibition at top conc.: 99.60%
[21]; read-out: Absolute GI50
  GI50: 1980 nM
[21]; read-out: Absolute IC50
  IC50: 2220 nM
[21]; [22]
  % inhibition at top conc.: 99.59%
